For data set [1], the system named is G. duodenalis trophozoites. The experiment in a line: Antigiardial activity, vial microassay (growth inhibition of trophozoites, 24 h). Particulars: for % Inhibition at 300 μg/mL: G. duodenalis trophozoites; for inhibition at 300 µg/mL / IC50: Giardia duodenalis; for inhibition at 300 µg/mL: read-out: % Inhibition at 300 μg/mL; for G. duodenalis IC50 (IC95%): trophozoites, Probit, 95% confidence limits in brackets.
Procedure: G. duodenalis strain 0989: IMSS was used. G. duodenalis was cultured in TYI-S-33 media supplemented with bile, as previously described [26]. G. duodenalis trophozoites were sub-cultured three times a week. Parasites used in the assays to determine drug susceptibility were harvested when cultures reached the middle of their logarithmic growth phase.
The concentration of all standard drugs was adjusted to 10 mg/mL. Metronidazole (used as a positive control), and pure compounds were dissolved in (DMSO). All stock solutions were stored at –20 °C until use. Before use in the assays, serial two-fold dilutions of the stock solutions were made in basal TYI medium (without serum). Fifty micro liters of each solution was added into 1 mL glass screw-capped cylindrical vials with a conical interior (Wheaton vial). All vials were filled with 950 μL of a freshly prepared parasite suspension in TYI-S-33 medium plus 10 % bovine serum. G. duodenalis was tested at density of 2 × 10^5 trophozoites/mL. All vials were incubated at 36 °C for 24 h. The vials were then chilled on iced water for 20 min, and the number of trophozoites per milliliter in each tube were counted using a hemocytometer (Neubauer cell-counter chamber) [29]. The percentage of growth inhibition with respect to untreated controls was then determined.
All experiments were performed in triplicate and in at least three independent bioassays (n = 9 cultures for each analyzed compound). The data were analyzed using GraphPad Prism software version 5.0 (USA). The half-maximum inhibitory concentration (IC50) of each drug was calculated by Probit analysis and 95% confidence limits were calculated.

For a further data set, the system named is Vero cells. The experiment in a line: Cytotoxic activity on Vero cell line (Trypan blue, 24 h). Particulars: for IC50: Chlorocebus sabaeus, read-out: Vero Cells IC50 (IC95%); for IC50 / Vero Cells IC50 (IC95%): 24 h; for Selectivity Index (SI): ratio of IC50 in Vero cells to IC50 in G. duodenalis. The data set is classed as cell-based. As for the experimental part: Cytotoxicity assay was performed on Vero cell line (ATCC CCL-81), as previously described. Briefly, Vero cells were cultivated in Roswell Park Memorial Institute (RPMI) medium supplemented with 10% fetal bovine serum (FBS). […] Each compound was dissolved in dimethyl sulfoxide (DMSO) and sterilized by filtration, and brought to final concentrations of 487, 243.5, 121.75 and 60.875 μg/mL with RPMI medium supplemented with 10% FBS. The cell suspension was adjusted to 1 × 10^4 cells/mL with RPMI medium supplemented with 10% FBS. Cell suspension (200 μL) was placed into a 96-well plate and incubated at 37 °C in a 5% CO2 atmosphere for 24 h. Each compound solution was added to each well containing the Vero cells and incubated for 24 h. The assay was carried out in triplicate. The number of cells were determined in a Neubauer chamber, while the percentage of viable cells was measured with the Trypan blue staining method.
The SI is the ratio of the IC50 concentration in host cells (Vero cells) to that in parasite (G. duodenalis).

For data set [2] the following is noted: source not stated; cited from earlier work.
For data set [3], the system named is Mycobacterium tuberculosis H37Rv. Details: method as in PMID 22797778. Particulars: sensitive strain H37Rv; cited from earlier work.
Where [4] appears, read: Vero cells, Probit, 95% confidence limits in brackets.
Setting [5] is: read-out: G. duodenalis IC50 (IC95%), trophozoites, 24 h, Probit, 95% confidence limits in brackets.

In brackets after ≈: the same amount, converted by molar mass. Where two headings read alike, the source gives them in different places.

By % Inhibition is commonly meant the drop in the measured response relative to a control, in per cent. The low end stands for a response near the control, the high end for a response far below the control. The term IC50 denotes the concentration that gives 50% inhibition. Broadly, the log P is the decadic logarithm of the partition coefficient of the neutral form, usually between octanol and water. As a reminder, the MIC is the least concentration at which growth counts as inhibited.

Consider `Cc1ccccc1C(C)C` [o-Cymene], for which the “% Inhibition at 300 μg/mL” value in data set [1] is 30%.

`CCCCCCCCCCC=O` [Undecanal]: in data set [1], the inhibition at 300 µg/mL came out at 25%.

In the case of `Cc1ncc([N+](=O)[O-])n1CCO` [Metronidazole, reference compound], the IC50 in the data set with Vero cells (setting [4]) stood at 83.5 µg/mL (≈ 488 µM); in data set [1] (setting [5]) it was 0.5 µg/mL (≈ 2.92 µM). In data set [1], the inhibition at 300 µg/mL is 100%.

As to `CC1=CCC(C(C)C)=CC1` [γ-Terpinene], the inhibition at 300 µg/mL in data set [1] came to 24%.

`CC1(C)C(=O)[C@]2(C)CCC1C2` [(R) (−)-Fenchone]: in data set [1], the “% Inhibition at 300 μg/mL” value is given as 6.5%.

Turning to `C=C1[C@H]2CC[C@H](C2)C1(C)C` [(1R,4S) (+)-Camphene], the “Vero Cells IC50 (IC95%)” value in the data set on Vero cells (setting [4]) is reported as 494.3 (492.1–496.4) μg/mL. Besides, in data set [1], the “% Inhibition at 300 μg/mL” value worked out at 61% and the “G. duodenalis IC50 (IC95%)” value is recorded as 181.1 (158.1–207.9) μg/mL.

For the compound `CC1(C)C(=O)[C@@]2(C)CCC1C2` [(S) (+)-Fenchone], in data set [1], the “% Inhibition at 300 μg/mL” value is given as 16%.

For the compound `C=CCc1ccc(OC)cc1` [Estragole], the IC50 with Vero cells (Vero) was found to be 259 µg/mL (≈ 1750 µM); in data set [1] (read-out: G. duodenalis IC50 (IC95%)), 150 µg/mL (≈ 1010 µM). The “Selectivity Index (SI)” value in the data set with Vero cells came to 1.7. In addition, in data set [1], the inhibition at 300 µg/mL worked out at 49%.

For the compound `Oc1cccc(O)c1` [1,3-Benzenediol], the results for the IC50 (with Vero cells (setting [4]); in data set [1] (setting [5])) were 438 µg/mL (≈ 3980 µM) and 169 µg/mL (≈ 1530 µM), respectively. The “Selectivity Index (SI)” value in the data set on Vero cells came to 2.5. Further, the inhibition at 300 µg/mL in data set [1] came to 56%.

Consider `CC(=O)OC1C2(C)CCC(C2)C1(C)C` (stereo not shown) [Fenchylacetate], for which the “% Inhibition at 300 μg/mL” value in data set [1] was 38.5%.

Take `COc1ccc(C=O)cc1` [p-Anisaldehyde]: the IC50 in the data set with Vero cells (setting [4]) was found to be 541 µg/mL (≈ 3970 µM); in data set [1] (setting [5]) it was 197 µg/mL (≈ 1450 µM). The “Selectivity Index (SI)” value with Vero cells amounted to 2.7. Further, the inhibition at 300 µg/mL in data set [1] turned out to be 67%.

With `CCCCCCCC/C=C\CCCCCCCC(=O)O` [Oleic acid], in data set [1], the inhibition at 300 µg/mL came to 24%.

Turning to `CCCCCC/C=C/C=C/C=O` [Trans, trans-2,4-undecadienal, trans, trans-2,4-undecadienal], the IC50 in the data set with Vero cells (setting [4]) amounted to 589 µg/mL (≈ 3540 µM). Besides, the “Selectivity Index (SI)” value in the data set with Vero cells turned out to be 8.1. Moreover, in data set [1], the inhibition at 300 µg/mL turned out to be 97% and the “G. duodenalis IC50 (IC95%)” value is given as 72.1 (57.7–90.1) μg/mL. In addition, in data set [1] (setting [5]), the IC50 amounted to 72.1 µg/mL (≈ 434 µM). Moreover, the “log P” value in data set [2] is on record as 3.8. For the same compound, the MIC in data set [3] was 25 µg/mL (≈ 150 µM).

Take `CC1=CCC(=C(C)C)CC1` [Terpinolene]: the inhibition at 300 µg/mL in data set [1] is 30%.

Consider `C/C=C/c1ccc(OC)cc1` [Trans-anethol], for which the “% Inhibition at 300 μg/mL” value in data set [1] stood at 17%.

On to `CC(C)(O)C(C)(C)O` [Pinacol], for which the inhibition at 300 µg/mL in data set [1] is 2%.

As for `CC(C)=CCC[C@@H](C)CCO` [(R)- (+)-β-Citronellol], the “% Inhibition at 300 μg/mL” value in data set [1] was determined as 38%.

For (R) (−)-Carvone, in the data set on Vero cells (setting [4]), the “Vero Cells IC50 (IC95%)” value was 350.7 (348.4–353.0) μg/mL. In data set [1], the “% Inhibition at 300 μg/mL” value amounted to 66% and the “G. duodenalis IC50 (IC95%)” value was 207.0 (162.2–267.3) μg/mL.

As to `CC(C)[C@]12CC(=O)[C@H](C)[C@H]1C2` [(−)-α-Tujone], the “% Inhibition at 300 μg/mL” value in data set [1] is listed as 14%.
